Assay [1] deals with DNA (cytosine-5)-methyltransferase 1 (Homo sapiens) (UniProt P26358). Description: Inhibition of DNMT1 in human HCT116 cells at 5 uM after 24 hrs by Western blot analysis relative to control. The class given is cell-based. The following applies: HCT-116.
The subject of assay [2] is HCT-116. Description: Cytotoxicity against human HCT116 cells assessed as viability. In kind it is functional. The following applies: read-out: TD50 (the source's name).

Usually inhibition stands for how much of the control response was suppressed. A higher inhibition goes with a response far below the control.

Molecules are shown by their SMILES.

DNA (cytosine-5)-methyltransferase 1 (Homo sapiens), sequence (P26358 whole entry): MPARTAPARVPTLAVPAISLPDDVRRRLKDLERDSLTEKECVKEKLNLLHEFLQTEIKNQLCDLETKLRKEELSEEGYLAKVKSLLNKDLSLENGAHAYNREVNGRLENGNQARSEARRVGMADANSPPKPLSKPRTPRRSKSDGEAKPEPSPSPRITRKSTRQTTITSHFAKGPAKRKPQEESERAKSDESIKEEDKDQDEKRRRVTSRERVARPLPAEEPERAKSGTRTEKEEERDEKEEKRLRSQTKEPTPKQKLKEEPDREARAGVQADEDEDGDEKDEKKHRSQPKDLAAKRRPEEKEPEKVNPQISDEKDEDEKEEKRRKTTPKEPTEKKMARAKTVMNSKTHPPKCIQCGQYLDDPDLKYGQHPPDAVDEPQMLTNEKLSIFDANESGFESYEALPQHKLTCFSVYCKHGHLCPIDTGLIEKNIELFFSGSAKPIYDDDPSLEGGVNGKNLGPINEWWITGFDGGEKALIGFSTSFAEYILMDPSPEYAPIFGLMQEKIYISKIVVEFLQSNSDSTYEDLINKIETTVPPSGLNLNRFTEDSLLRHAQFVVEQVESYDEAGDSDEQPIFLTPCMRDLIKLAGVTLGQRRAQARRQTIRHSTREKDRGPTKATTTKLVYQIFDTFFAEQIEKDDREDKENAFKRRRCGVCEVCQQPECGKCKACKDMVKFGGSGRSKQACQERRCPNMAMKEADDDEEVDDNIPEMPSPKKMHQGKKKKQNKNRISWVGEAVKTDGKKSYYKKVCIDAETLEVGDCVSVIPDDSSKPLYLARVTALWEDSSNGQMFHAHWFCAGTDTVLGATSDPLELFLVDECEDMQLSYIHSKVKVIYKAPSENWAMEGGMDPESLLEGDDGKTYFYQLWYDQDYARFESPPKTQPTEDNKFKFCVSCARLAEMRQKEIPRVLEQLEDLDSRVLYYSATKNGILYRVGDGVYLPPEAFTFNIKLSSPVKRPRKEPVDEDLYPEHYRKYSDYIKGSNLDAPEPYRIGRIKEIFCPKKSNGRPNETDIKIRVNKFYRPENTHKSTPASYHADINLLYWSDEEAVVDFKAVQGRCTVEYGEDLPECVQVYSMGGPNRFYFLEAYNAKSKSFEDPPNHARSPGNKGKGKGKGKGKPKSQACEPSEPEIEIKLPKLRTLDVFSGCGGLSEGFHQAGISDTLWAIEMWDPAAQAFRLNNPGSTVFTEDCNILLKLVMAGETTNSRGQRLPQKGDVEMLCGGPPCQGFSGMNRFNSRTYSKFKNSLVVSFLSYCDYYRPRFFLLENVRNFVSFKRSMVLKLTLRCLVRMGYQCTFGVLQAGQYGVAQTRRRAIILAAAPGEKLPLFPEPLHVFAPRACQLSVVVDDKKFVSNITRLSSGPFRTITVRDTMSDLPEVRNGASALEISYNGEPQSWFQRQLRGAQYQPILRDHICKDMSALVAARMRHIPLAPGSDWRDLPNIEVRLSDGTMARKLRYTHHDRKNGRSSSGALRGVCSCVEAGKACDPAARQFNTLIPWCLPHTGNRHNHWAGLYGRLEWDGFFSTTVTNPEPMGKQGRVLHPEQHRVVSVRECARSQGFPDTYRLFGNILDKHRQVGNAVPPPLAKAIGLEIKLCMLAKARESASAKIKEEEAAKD

In assay [1], `Cc1cc(Nc2ccc(NC(=O)c3ccc(Nc4ccnc5c(F)c(F)c(F)cc45)cc3)cc2)nc(N)n1` registered an inhibition of 18%. The CC50 in assay [2] is 25 µM.
`Cc1cc(Nc2ccc(NC(=O)c3ccc(Nc4ccnc5ccccc45)cc3)cc2)nc(N)n1` registered an inhibition in assay [1] of 97%. For the same molecule, the CC50 in assay [2] came out at 25 µM.
The like results for `Cc1cc(Nc2cccc(C(=O)Nc3ccc(Nc4ccnc5ccccc45)cc3)c2)nc(N)n1` were, in that order, 85% and 25 µM.
Molecule `C[n+]1ccc(Nc2ccc(NC(=O)c3ccc(Nc4ccnc5ccccc45)cc3)cc2)cc1` registered an inhibition in assay [1] of 0%. In addition, the CC50 in assay [2] was determined as 25 µM.
The molecule `CN(C)c1ccc2nccc(Nc3ccc(NC(=O)c4cccc(Nc5cc[n+](C)cc5)c4)cc3)c2c1` registered an inhibition in assay [1] of 75%. The CC50 in assay [2] is 25 µM.
As for `C[n+]1ccc(Nc2cccc(C(=O)Nc3ccc(Nc4ccnc5ccc(N)cc45)cc3)c2)cc1`, the inhibition in assay [1] was found to be 80%. Further, the CC50 in assay [2] amounted to 25 µM.
Regarding `CN(C)c1ccc2nccc(Nc3ccc(C(=O)Nc4cccc(Nc5cc[n+](C)cc5)c4)cc3)c2c1`, the inhibition in assay [1] worked out at 0%. Further, in assay [2], the CC50 amounted to 25 µM.
In the case of `C/C(=N\N=C(N)N)c1cccc(C(=O)Nc2ccc(Nc3ccnc4ccc(N(C)C)cc34)cc2)c1`, the inhibition in assay [1] was 40%. In addition, the CC50 in assay [2] was determined as 25 µM.
On to `C[n+]1ccc(Nc2cccc(NC(=O)c3ccc(Nc4ccnc5ccc(N)cc45)cc3)c2)cc1`, for which, in assay [1], the inhibition is 2%. For the same molecule, the CC50 in assay [2] was 12.5 µM.
On to `Cc1cc(Nc2ccc(C(=O)Nc3ccc(Nc4ccnc5ccccc45)cc3)cc2)nc(N)n1`, for which, in assay [1], the inhibition was found to be 75%. Also, the CC50 in assay [2] turned out to be 25 µM.
The molecule `C/C(=N\N=C(N)N)c1ccc(C(=O)Nc2ccc(Nc3ccnc4ccc(N(C)C)cc34)cc2)cc1` came in with an inhibition in assay [1] of 34%. Besides, the CC50 in assay [2] stood at 25 µM.
The molecule `C/C(=N\N=C(N)N)c1cccc(NC(=O)c2ccc(Nc3ccnc4ccc(N(C)C)cc34)cc2)c1` came in with an inhibition in assay [1] of 0%. The CC50 in assay [2] was found to be 25 µM.
The like results for `C[n+]1ccc(Nc2cccc(NC(=O)c3ccc(Nc4ccnc5ccccc45)cc3)c2)cc1` were, in that order, 0% and 12.5 µM.
The like results for `CN(C)c1ccc2nccc(Nc3ccc(C(=O)Nc4ccc(Nc5cc[n+](C)cc5)cc4)cc3)c2c1` were, in that order, 16% and 50 µM.
The like results for `CN(C)c1ccc2nccc(Nc3ccc(NC(=O)c4ccc(Nc5cc[n+](C)cc5)cc4)cc3)c2c1` were, in that order, 45% and 50 µM.
`Cc1cc(Nc2ccc(NC(=O)c3ccc(Nc4ccnc5ccc(Cl)cc45)cc3)cc2)nc(N)n1`: the inhibition in assay [1] is 30%. Besides, the CC50 in assay [2] amounted to 25 µM.
The like results for `C/C(=N\N=C(N)N)c1ccc(NC(=O)c2ccc(Nc3ccnc4ccc(N(C)C)cc34)cc2)cc1` were, in that order, 30% and 25 µM.
The like results for `C[n+]1ccc(Nc2cccc(C(=O)Nc3ccc(Nc4ccnc5ccccc45)cc3)c2)cc1` were, in that order, 80% and 25 µM.
The like results for `C[n+]1ccc(Nc2ccc(C(=O)Nc3ccc(Nc4ccnc5ccccc45)cc3)cc2)cc1` were, in that order, 0% and 12.5 µM.
As to `Cc1cc(Nc2ccc(NC(=O)c3ccc(Nc4ccnc5ccc(N(C)C)cc45)cc3)cc2)nc(N)n1`, the inhibition in assay [1] was found to be 43%. Further, in assay [2], the CC50 came to 25 µM.
The like results for `C[n+]1ccc(Nc2ccc(NC(=O)c3ccc(Nc4ccnc5ccc(N)cc45)cc3)cc2)cc1` were, in that order, 0% and 50 µM.
Regarding `C[n+]1ccc(Nc2ccc(C(=O)Nc3ccc(Nc4ccnc5ccc(N)cc45)cc3)cc2)cc1`, the inhibition in assay [1] worked out at 0%. The CC50 in assay [2] was determined as 50 µM.

Values taken from ChEMBL document CHEMBL2384925, “Structure-activity relationships for 4-anilinoquinoline derivatives as inhibitors of the DNA methyltransferase enzyme DNMT1” (2013).
